Like-named read-outs stand apart in the source and are kept apart here.

This is an account of results in US12227500B2, “Substituted pyrrolo[2,3-b]pyridines for suppressing toxic endoplasmic reticulum stress” (THE TRUSTEES OF COLUMBIA UNIVERSITY IN THE CITY OF NEW YORK, priority 2018, dated 2025).

In one experiment the target is T1, MLK3/MAP3K11 (Homo sapiens, UniProt Q16584).
T1 construct: purchased Reaction Biology Corp
Briefly: Radiolabeled ATP kinase assay (Reaction Biology Corp.), MLK3. It is filed as biochemical. As to conditions: 0.1 μM. How it is done: (§1) Meanwhile, the same analogs were analyzed in a radiolabeled ATP assay (10 μM ATP; Reaction Biology Corp.) to compare the extent to which they could inhibit the activity of HGK, MLK1, or MLK3 in a cell-free environment (Table S3 and S4).

For another experiment, the system named is N9 microglial cells. Description: TNFα release by LPS-stimulated microglia (ELISA). As to conditions: LPS 0.1-5 μM; 24 h. It is filed as cell-based, mouse. The protocol:
To model microglial activation in vitro, we stimulated mouse N9 microglial cells with increasing concentrations of E. coli-derived lipopolysaccharides (LPS) (0.1-5 μM) to measure release of the pro-inflammatory cytokine TNFα into cell culture media.
Cultures were maintained in DMEM containing FBS (10%, Life Technologies) and Glutamax (1%, Life Technologies). […] N9 cells remaining in the culture dishes were treated with AlamarBlue (Thermo Fisher) to assess viability. 5 μL AlamarBlue was added to each well (containing 50 μL culture media) and incubated for 4 h at 37°.
(ELISA stands for enzyme-linked immunosorbent assay.)

For experiment [1], the target named is T2, HGK/MAP4K4 (Homo sapiens, UniProt O95819). Description: Radiolabeled ATP kinase assay (Reaction Biology Corp.), HGK. It is filed as biochemical. Further details: purchased Reaction Biology Corp. Particulars: 10 μM ATP, read-out: % Enzyme Activity (relative to DMSO controls), HGK/MAP4K4, Data 1. The protocol:
as §1
Target sequence in this assay (O95819 whole entry): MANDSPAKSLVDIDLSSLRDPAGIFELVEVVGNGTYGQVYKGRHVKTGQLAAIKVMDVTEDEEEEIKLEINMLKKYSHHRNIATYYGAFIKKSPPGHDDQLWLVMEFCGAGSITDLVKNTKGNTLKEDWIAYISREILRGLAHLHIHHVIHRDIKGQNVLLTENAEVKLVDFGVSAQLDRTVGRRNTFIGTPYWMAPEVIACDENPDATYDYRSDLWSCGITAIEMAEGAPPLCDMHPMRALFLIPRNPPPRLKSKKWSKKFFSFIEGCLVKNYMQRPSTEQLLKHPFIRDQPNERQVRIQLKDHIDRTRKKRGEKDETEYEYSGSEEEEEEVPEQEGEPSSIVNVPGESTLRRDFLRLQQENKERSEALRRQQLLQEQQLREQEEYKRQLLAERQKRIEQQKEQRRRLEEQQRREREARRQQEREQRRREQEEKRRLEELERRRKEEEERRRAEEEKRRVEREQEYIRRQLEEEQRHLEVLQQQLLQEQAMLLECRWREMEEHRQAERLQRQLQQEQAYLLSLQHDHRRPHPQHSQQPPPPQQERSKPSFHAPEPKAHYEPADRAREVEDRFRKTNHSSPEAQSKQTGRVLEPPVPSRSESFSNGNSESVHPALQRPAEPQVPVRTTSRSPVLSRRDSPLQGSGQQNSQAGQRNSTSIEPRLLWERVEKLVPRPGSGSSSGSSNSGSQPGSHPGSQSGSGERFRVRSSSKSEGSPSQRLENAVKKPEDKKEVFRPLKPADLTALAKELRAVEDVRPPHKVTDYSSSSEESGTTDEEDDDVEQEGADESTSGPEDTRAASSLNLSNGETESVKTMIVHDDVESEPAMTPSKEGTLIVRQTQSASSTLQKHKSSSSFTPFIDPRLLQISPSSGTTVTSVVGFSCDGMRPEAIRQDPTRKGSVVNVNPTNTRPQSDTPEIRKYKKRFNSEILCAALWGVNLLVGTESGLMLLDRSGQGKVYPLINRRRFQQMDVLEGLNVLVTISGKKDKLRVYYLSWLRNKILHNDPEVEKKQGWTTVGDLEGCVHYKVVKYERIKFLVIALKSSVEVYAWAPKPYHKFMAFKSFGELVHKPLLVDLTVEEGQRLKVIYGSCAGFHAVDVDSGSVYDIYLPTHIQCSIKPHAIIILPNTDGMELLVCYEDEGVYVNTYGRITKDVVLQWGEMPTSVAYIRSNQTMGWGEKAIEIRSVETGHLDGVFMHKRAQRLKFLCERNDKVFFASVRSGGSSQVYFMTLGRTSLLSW

Experiment [2] has as its system human ES motor neurons carrying the ALS-causing SOD1^A4V mutation. Description: cells. It is filed as cell-based. As to conditions: 72 h. The protocol:
Next, survival assays were performed with all the analogs at once to generate a low-variability dataset. All compounds were evaluated at concentrations ranging from 0.1-3.0 μM (five-point dilution) in three technical replicates and two biological replicates.

Experiment [3] relates to HB9::GFP-SOD1^+/A4V human motor neurons. Description: Rescue of CPA toxicity in human ESC-derived motor neurons, SOD1^+/A4V. It counts as cell-based. The text has this: (§2) One advantage of the stem cell-derived motor neuron survival assay is that it can be easily extended to human motor neurons. To adapt the assay to human cells, we generated a new isogenic pair of ESC lines derived from a human ESC line expressing GFP under the control of the Hb9 motor neuron promoter (HUES3 HB9::GFP, (Di Giorgio et al. 2008)). […] . The pair of cell lines was differentiated into motor neurons in parallel using previously published protocols (Amoroso et al. 2013; […] .
(§3) Differentiation of human isogenic HUES3 ESC HB9::GFP reporter lines into motor neurons was performed as previously described (Maury et al. 2015). Cells were dissociated on day 16 of differentiation, FACS-sorted and plated on poly-ornithine- and laminin-coated surfaces as above. Serum-free human motor neuron plating media was supplemented with the antimitotic UFdU and the neurotrophic factors GDNF, BDNF, CNTF, and IGF1 (all at 10 ng/mL) as described (Johnson-Kerner et al. 2015).

The test system of experiment [4] is HB9::GFP-SOD1^+/+ human motor neurons. Description: Rescue of CPA toxicity in human ESC-derived motor neurons, SOD1^+/+. It counts as cell-based. Particulars: 33 μM CPA; for rescue of CPA-induced cell death: WT motor neurons.
Excerpt: as §2, §3

For experiment [5], the system named is human stem cell-derived motor neurons derived from a healthy patient. Description: CPA survival assay, wild-type human stem cell-derived motor neurons. As to conditions: for motor neuron survival restored, % of vehicle controls (maximum): CPA 33 μM, at 1.2 μM (PF-6260933), 2.4 μM (GNE-495), 0.6 μM (URMC-099).
Another experiment concerns hSOD1^G93A motor neurons. Briefly: RT-PCR of stress-associated genes after CPA treatment. It counts as cell-based, mouse. The protocol: . We observed a rapid increase in the expression of Bip and the key downstream effector Chop (Ddit3). Bip was increased 2-fold after 1 hour of CPA exposure, and continued to increase to approximately 5-fold by 8 hours. […] Other genes with >2-fold induction included: p58/PK 255 (6.5 fold at 8 hours), an ER-stress-induced protein kinase; Growth arrest and DNA-damage inducible protein 45 alpha (Gadd45a; […]; Erdj4, a Bip cofactor with involvement in ER associated protein degradation (ERAD) (5-fold at 4-8 hours); Atf4, a downstream mediator of the PERK-axis of the UPR (3-fold at 8 hours); […]; and Nrf2, a PERK substrate (2 fold at 8 hours). Altogether, these expression changes pointed to strong activation of multiple axes of the unfolded protein response (UPR) in motor neurons exposed to CPA (FIG. 19F).
Samples were lysed in TRIzol and frozen at −80° C. until further processing. RNA was extracted using the Qiashredder and Qiagen RNeasy Mini kits (Qiagen) according to the manufacturer's protocol. 1-2 μg total RNA was used for each reverse transcription reaction, and reactions were performed using the TaqMan RT kit (Applied Biosystems, Grand Island, NY, USA). Primer pairs were designed for target transcripts using Primer Express 3.0 (Applied Biosystems). Quantitative PCR reactions were performed using the Power SYBR Green PCR Master Mix (Applied Biosystems). Reactions were run and analyzed on a ViiA 7 (Life Technologies) qPCR instrument using absolute quantification settings.

Experiment [6] has as its system ESC-derived spinal motor neurons and interneurons. Briefly: Toxicity of ER stressors in mouse ESC-derived spinal neuron cultures. It is filed as cell-based. The text has this:
One of the selective stressors that we identified was cyclopiazonic acid (CPA), a mycotoxin that reversibly blocks the sarcoendoplasmic reticulum-associated calcium ATPse (SERCA). SERCA is responsible for sequestering calcium from the cytoplasm into the endoplasmic reticulum (ER) (Goeger et al. 1988). SERCA inhibition lowers calcium concentration in the ER, leading to dysfunction of protein folding, activation of the unfolded protein response, ER stress, and apoptosis (Doutheil et al. 1997). […]. For all subsequent experiments, unless stated otherwise, motor neurons were treated with 7.5 μM CPA.
[…]. […] […].
For this analysis, we generated a new ESC line that expresses tdTomato in dI4 and dIL dorsal spinal inhibitory interneurons derived from Ptf1α-expressing progenitors (Hoang et al. 2017, unpublished data). We differentiated this line under conditions that promote the specification of dorsal interneuron identity. FACS-purified tdTomato-expressing interneurons were co-cultured with FACS-purified GFP-expressing spinal motor neurons (FIG. 16E and FIG. 16G).
To strengthen the link between the activation of ER stress and motor neuron degeneration, we extended our study to include two additional compounds that activate ER stress: thapsigargin, a drug that acts similarly to CPA by inhibiting SERCA pumps, but is irreversible (Lytton et al. 1991), and tunicamycin, a drug that triggers ER stress in a calcium-independent manner by inhibiting protein N-glycosylation in the ER (Oslowski et al. 2011). […] Thus, the motor neuron-toxic effects of CPA are likely related to its activation of ER stress pathways and not to its effects on calcium levels or other off-target effects (FIG. 16G).

The target in experiment [7] is T2, HGK/MAP4K4. Particulars: Ammirati et al. 2015; Ndubaku et al. 2015; cited from earlier work.
Target sequence in this assay (O95819 whole entry, species assumed): as the sequence (O95819 whole entry) above
Another experiment deals with human ES motor neurons. Description: Rescue of CPA toxicity by kinase inhibitors in dilution series (FIG. 3). As to conditions: dilution series, FIG. 3.
The target in another experiment is NUAK1 (Homo sapiens, UniProt O60285). As to conditions: 0.5 μM inhibitor; Anastassiadis et al. 2011; cited from earlier work.
Sequence of NUAK1 (O60285 whole entry, species assumed): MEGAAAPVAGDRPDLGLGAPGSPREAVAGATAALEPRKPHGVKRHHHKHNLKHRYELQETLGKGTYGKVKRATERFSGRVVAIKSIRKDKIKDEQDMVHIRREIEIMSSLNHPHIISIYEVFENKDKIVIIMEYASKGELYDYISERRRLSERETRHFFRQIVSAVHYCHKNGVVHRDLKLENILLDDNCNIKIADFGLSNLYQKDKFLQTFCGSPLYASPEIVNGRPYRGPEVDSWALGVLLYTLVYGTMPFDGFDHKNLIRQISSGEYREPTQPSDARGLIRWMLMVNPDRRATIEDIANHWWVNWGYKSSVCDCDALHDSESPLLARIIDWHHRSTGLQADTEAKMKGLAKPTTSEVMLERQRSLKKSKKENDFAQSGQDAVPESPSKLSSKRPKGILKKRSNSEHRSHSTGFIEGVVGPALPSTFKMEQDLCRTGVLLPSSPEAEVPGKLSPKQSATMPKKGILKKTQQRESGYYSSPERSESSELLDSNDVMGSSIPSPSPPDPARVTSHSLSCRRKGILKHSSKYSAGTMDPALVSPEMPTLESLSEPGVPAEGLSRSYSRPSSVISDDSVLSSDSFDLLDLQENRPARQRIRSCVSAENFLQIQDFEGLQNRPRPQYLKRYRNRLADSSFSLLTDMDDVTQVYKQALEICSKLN

T1 sequence (Q16584 whole entry): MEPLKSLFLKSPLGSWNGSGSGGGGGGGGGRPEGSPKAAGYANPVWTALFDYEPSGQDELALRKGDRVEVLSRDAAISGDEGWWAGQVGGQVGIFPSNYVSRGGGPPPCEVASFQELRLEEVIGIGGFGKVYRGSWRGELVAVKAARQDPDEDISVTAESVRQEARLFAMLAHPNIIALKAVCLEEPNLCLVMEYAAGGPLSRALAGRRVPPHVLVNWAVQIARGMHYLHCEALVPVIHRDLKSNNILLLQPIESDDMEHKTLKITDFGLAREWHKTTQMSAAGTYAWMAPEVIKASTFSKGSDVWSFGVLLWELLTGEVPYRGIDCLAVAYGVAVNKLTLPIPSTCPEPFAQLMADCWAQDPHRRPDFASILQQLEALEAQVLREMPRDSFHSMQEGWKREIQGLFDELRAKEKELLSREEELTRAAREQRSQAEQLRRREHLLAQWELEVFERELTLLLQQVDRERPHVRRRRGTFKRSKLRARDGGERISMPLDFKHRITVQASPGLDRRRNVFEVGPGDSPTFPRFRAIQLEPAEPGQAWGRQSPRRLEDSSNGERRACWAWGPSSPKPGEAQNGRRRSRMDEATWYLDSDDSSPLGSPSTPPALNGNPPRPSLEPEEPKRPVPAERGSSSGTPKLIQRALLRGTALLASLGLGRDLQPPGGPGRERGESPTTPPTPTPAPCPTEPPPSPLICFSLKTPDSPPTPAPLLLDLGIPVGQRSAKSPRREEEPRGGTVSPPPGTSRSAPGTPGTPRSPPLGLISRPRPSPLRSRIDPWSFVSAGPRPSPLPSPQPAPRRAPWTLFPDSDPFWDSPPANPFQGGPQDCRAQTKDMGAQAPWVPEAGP

On to `CN1CC2CCC(C1)N2Cc1ccc(-c2cnc3[nH]cc(-c4cccc5[nH]ncc45)c3c2)cc1` [Compound 12e, 4-(5-(4-((3-Methyl-3,8-diazabicyclo[3.2.1]octan-8-yl)methyl)phenyl)-1H-pyrrolo[2,3-b]pyridin-3-yl)-1H-indazole], for which the remaining activity at 0.1 µM worked out at 71.8% at MLK3/MAP3K11 and 0.99% at HGK/MAP4K4 [1] ([Cmpd] 0.1 μM). Also, the “TNFα secretion in LPS-stimulated microglia” value in the experiment with N9 microglial cells is reported as “did not significantly decrease TNFα levels”. Moreover, the remaining activity at 0.025 µM on HGK/MAP4K4 [1] ([Cmpd] 0.025 μM) stood at 2.73%. Besides, in experiment [2] (CPA 33 μM), the EC50 entry is recorded as “Amibiguous”. Also, the viability at 1 µM in experiment [2] (Homo sapiens, Neuron, CPA (33 μM) + compound (1 μM), read-out: Motor Neuron Survival, % untreated) was determined as 106%. For the same compound, in [2] (Homo sapiens, Neuron, CPA 33 μM, read-out: Emax (MN survival % untreated)), the Emax is 144%.
For `Cn1c2ccccc2c2c3c(c4c5ccccc5n(CCC#N)c4c21)CNC3=O` [Go 6976], the “rescue of CPA-induced cell death” value in [3] (SOD1^A4V motor neurons, 33 μM CPA) amounted to 34%; in experiment [4] it was 45%.
With `CC(=O)C1=C(O)[C@@H]2[C@H]3c4c[nH]c5cccc(c45)C[C@H]3C(C)(C)N2C1=O` [CPA, cyclopiazonic acid], the “loss of motor neurons” value in experiment [3] (33 μM CPA) is reported as around 86%. In addition, the “motor neuron survival, % of controls treated with vehicle alone” value in [5] (CPA 33 μM for 72h, alone) is around 40%. The “loss of motor neurons” value in [4] is given as around 71%. Besides, in the experiment with hSOD1^G93A motor neurons (4-8 hours), the Erdj4 induction is given as 5 fold. The same compound showed a Chop induction with hSOD1^G93A motor neurons (4 and 8 hours) of 16 fold. In the experiment with hSOD1^G93A motor neurons (1 hour), the Chop induction amounted to 4 fold. Besides, the Bip expression increase with hSOD1^G93A motor neurons (1 hour of CPA exposure) was 2 fold. Further, the Gadd45a induction with hSOD1^G93A motor neurons (4 hours) is on record as 5 fold. Moreover, in the experiment on hSOD1^G93A motor neurons (8 hours), the Atf4 induction is reported as 3 fold, the Bip expression increase result is reported as “approximately 5 fold”, the Calreticulin induction was determined as 3 fold and the Nrf2 induction is on record as 2 fold. Moreover, in the experiment on hSOD1^G93A motor neurons (8 hours), the p58/PK induction is 6.5 fold. In [6], the “effective concentration range at which mutant motor neurons exhibit reduced survival compared to control” value lay within 6.25 to 12.5 µM; the “reduction of survival of GFP− Tuj-1+ non-motor neurons” value is given as around 23%; the “reduction of survival of motor neurons (GFP+, Tuj1+)” value is given as around 71%. Besides, in [6] (FACS-purified co-culture, CPA), the “reduction of co-cultured spinal motor neuron survival” value is reported as around 70% and the “reduction of dorsal spinal interneuron survival” value is given as around 17%.
Take `Nc1ncc(C(=O)NC2CN(C(=O)C3CC3)C2)c2ccc(-c3cccc(F)c3)nc12` [GNE-495]: the “motor neuron survival restored, % of vehicle controls (maximum)” value in experiment [5] is listed as 73%. Further, on HGK/MAP4K4 [7], the IC50 is 3.7 nM. The “rescue of CPA toxicity” value with human ES motor neurons is “similarly neuroprotective”.
Turning to `COC(=O)[C@@]1(O)C[C@H]2O[C@]1(C)n1c3ccccc3c3c4c(c5c6ccccc6n2c5c31)C(=O)NC4` [Compound K-252a], the “rescue of CPA-induced cell death” value in experiment [3] worked out at 100%; in experiment [4], 56%.
Take `Nc1ccc(-c2cnc(N)c(-c3ccc(Cl)cc3)c2)cn1` [PF-6260933]: the “motor neuron survival restored, % of vehicle controls (maximum)” value in experiment [5] was 63%. At HGK/MAP4K4 [7], the IC50 was 3.7 nM. Further, the “rescue of CPA toxicity” value in the experiment with human ES motor neurons was “protected against CPA toxicity in a dose-dependent manner”.
Take `CN(C)S(=O)(=O)c1ccc2c(c1)/C(=C/c1cc3c([nH]1)CCCC3)C(=O)N2` [SU6656]: at NUAK1, the NUAK1 activity remaining is on record as 10.9%. Moreover, the “rescue of CPA toxicity” value in the experiment on human ES motor neurons was “failed to rescue CPA toxicity”.

The term IC50 denotes the concentration that gives 50% inhibition.
